Experimental data as given in the NIST ThermoML archive (doi:10.1016/j.jct.2017.08.035).
± gives the expanded uncertainty stated by the source.

Conditions: for surface tension liquid-gas: Maximal bubble pressure; for mass density: 100 kPa, Liquid, Vibrating tube method

| Compound | surface tension liquid-gas (298.15 K) | mass density (298.15 K) | surface tension liquid-gas (303.15 K) | mass density (303.15 K) | surface tension liquid-gas (308.15 K) | mass density (308.15 K) | surface tension liquid-gas (313.15 K) | mass density (313.15 K) | surface tension liquid-gas (318.15 K) | mass density (318.15 K) | surface tension liquid-gas (323.15 K) | mass density (323.15 K) | surface tension liquid-gas (328.15 K) | mass density (328.15 K) | surface tension liquid-gas (333.15 K) | mass density (333.15 K) | surface tension liquid-gas (338.15 K) | mass density (338.15 K) |
| --- | --- | --- | --- | --- | --- | --- | --- | --- | --- | --- | --- | --- | --- | --- | --- | --- | --- | --- |
| CCn1cc[n+](CCOC)c1.O=S(=O)([N-]S(=O)(=O)C(F)(F)F)C(F)(F)F | 36 ± 0.4 mN/m | 1463.13 ± 2.4 kg/m3 | 35.8 ± 0.4 mN/m | 1458.11 ± 2.4 kg/m3 | 35.5 ± 0.4 mN/m | 1453.11 ± 2.4 kg/m3 | 35.2 ± 0.4 mN/m | 1448.12 ± 2.4 kg/m3 | 35 ± 0.4 mN/m | 1443.16 ± 2.4 kg/m3 | 34.7 ± 0.4 mN/m | 1438.21 ± 2.4 kg/m3 | 34.4 ± 0.4 mN/m | 1433.29 ± 2.4 kg/m3 | 34.1 ± 0.4 mN/m | 1428.39 ± 2.4 kg/m3 | 33.9 ± 0.4 mN/m | 1423.51 ± 2.4 kg/m3 |
| CCn1cc[n+](CCOC)c1.O=S(=O)([O-])C(F)(F)F | 38 ± 0.4 mN/m | 1355.89 ± 4.6 kg/m3 | 37.7 ± 0.4 mN/m | 1351.61 ± 4.6 kg/m3 | 37.4 ± 0.4 mN/m | 1347.35 ± 4.6 kg/m3 | 37.1 ± 0.4 mN/m | 1343.11 ± 4.6 kg/m3 | 36.9 ± 0.4 mN/m | 1338.88 ± 4.6 kg/m3 | 36.5 ± 0.4 mN/m | 1334.67 ± 4.6 kg/m3 | 36.3 ± 0.4 mN/m | 1330.48 ± 4.6 kg/m3 | 36.1 ± 0.4 mN/m | 1326.3 ± 4.6 kg/m3 | 35.8 ± 0.4 mN/m | 1322.12 ± 4.6 kg/m3 |
| CC(=O)[O-].CCn1cc[n+](CCOC)c1 [1-ethyl-3-(2-methoxyethyl)imidazolium acetate] | 46 ± 0.5 mN/m | 1192.38 ± 4.6 kg/m3 | 45.7 ± 0.5 mN/m | 1189.07 ± 4.6 kg/m3 | 45.4 ± 0.5 mN/m | 1185.74 ± 4.6 kg/m3 | 45.1 ± 0.5 mN/m | 1182.43 ± 4.6 kg/m3 | 44.8 ± 0.5 mN/m | 1179.14 ± 4.6 kg/m3 | 44.5 ± 0.5 mN/m | 1175.86 ± 4.6 kg/m3 | 44.3 ± 0.5 mN/m | 1172.58 ± 4.6 kg/m3 | 44.1 ± 0.5 mN/m | 1169.35 ± 4.6 kg/m3 | 43.9 ± 0.5 mN/m | 1166.13 ± 4.6 kg/m3 |
| CCn1cc[n+](CCOC)c1.N#C[N-]C#N [1-ethyl-3-(2-methoxyethyl)imidazolium dicyanamide] | 44.6 ± 0.5 mN/m | 1113.6 ± 4.6 kg/m3 | 44.3 ± 0.5 mN/m | 1110.21 ± 4.6 kg/m3 | 44 ± 0.5 mN/m | 1106.83 ± 4.6 kg/m3 | 43.7 ± 0.5 mN/m | 1103.48 ± 4.6 kg/m3 | 43.4 ± 0.5 mN/m | 1100.15 ± 4.6 kg/m3 | 43.1 ± 0.5 mN/m | 1096.84 ± 4.6 kg/m3 | 42.9 ± 0.5 mN/m | 1093.53 ± 4.6 kg/m3 | 42.7 ± 0.4 mN/m | 1090.26 ± 4.6 kg/m3 | 42.4 ± 0.4 mN/m | 1087 ± 4.6 kg/m3 |
| CCn1cc[n+](CCOC)c1.N#C[S-] [1-ethyl-3-(2-methoxyethyl)imidazolium thiocyanate] | 49 ± 0.5 mN/m | 1122.11 ± 4.6 kg/m3 | 48.7 ± 0.5 mN/m | 1118.89 ± 4.6 kg/m3 | 48.4 ± 0.5 mN/m | 1115.69 ± 4.6 kg/m3 | 48 ± 0.5 mN/m | 1112.52 ± 4.6 kg/m3 | 47.7 ± 0.5 mN/m | 1109.37 ± 4.6 kg/m3 | 47.5 ± 0.5 mN/m | 1106.23 ± 4.6 kg/m3 | 47.3 ± 0.5 mN/m | 1103.12 ± 4.6 kg/m3 | 47.1 ± 0.5 mN/m | 1100.01 ± 4.6 kg/m3 | 46.7 ± 0.5 mN/m | 1096.92 ± 4.6 kg/m3 |
